Test results published in publication PMC9409351, “Differential Ganglioside and Cholesterol Depletion by Various Cyclodextrin Derivatives and Their Effect on Synaptosomal Glutamate Release” (International Journal of Molecular Sciences, 2022).

Tests used:
Assay type in all cases: cell-based
[1] = tested on: rat cerebral synaptosomes; test: Membrane integrity by LDH release assay; details: for IC50: 40 min exposure, LDH release as percentage of total LDH (Triton X-100 lysis); for Maximal effect (plateau) of LDH release: percentage of total LDH content
Protocol: Adult male Wistar rats purchased from Toxi-Coop Ltd. (Budapest, Hungary) were used in the experiments. Cerebral synaptosomes were prepared according to Modi and co-workers with the following modifications. Animals were decapitated and the brain was removed rapidly. Isotonic sucrose buffer (0.32 M sucrose, 4 mM HEPES-NaOH, pH 7.4) was used to homogenize the cerebrum with a Potter S Homogenizer (B. Braun, Melsungen, Germany) with 15 strokes at 1000 rpm. The homogenate was centrifuged (1500× g, 10 min, 4 °C) and the pellet was resuspended in sucrose buffer and centrifuged with the same parameters again. The two supernatants were combined and centrifuged (20,000× g, 10 min, 4 °C) to pellet the crude synaptosomes. […] Synaptosomes were stored frozen using cryopreservation buffer and the slow freezing method to preserve their physiological state and integrity. Briefly, synaptosome pellets were resuspended in isotonic sucrose buffer containing 10% DMSO (v/v) and 10% FBS (v/v). To slow down the freezing process at −80 °C, synaptosomes were placed in a 3 cm thick-walled polystyrene box with a lid. Synaptosomes were stored at −80 °C until use. Immediately prior to the experiments, synaptosomes were rapidly thawed in a 37 °C water bath and pelleted by centrifugation (20,000× g, 10 min, 4 °C) to remove the cryopreservation buffer. […] For all types of experiments, except for the glutamate release measurements, vehicle-treated (control) and CD-treated synaptosomes were incubated in 500 μL HEPES-glucose buffer with or without CDs, respectively, for 40 min at 37 °C. […] After incubation, the synaptosomes were centrifuged (20,000× g, 5 min, 4 °C) and used immediately for further analysis. A slightly different incubation method used in the glutamate release measurements is described in the corresponding section. Across all types of experiments, osmolarities of the CD solutions were adjusted and they were between 290 and 310 mOsm. At least three parallel measurements were carried out. The membrane integrity of the synaptosomes was measured by the CytoTox-ONE Homogeneous Membrane Integrity Assay (Promega, Madison, WI, USA) with minor modifications. The assay measures the release of the lactate dehydrogenase (LDH) enzyme from synaptosomes with damaged membranes. […] Both the supernatant and lysis samples were diluted 10-fold. The LDH activity was then assessed according to the manufacturer’s instructions and the fluorescence was measured by a Varioskan LUX multimode microplate reader (Thermo Fisher Scientific) at 530/590 nm.

[2] = tested on: rat cerebral synaptosomes; test: Basal and 4-aminopyridine-evoked glutamate release from synaptosomes (CE-LIF); details: 10 mM DIMEB, 33 mM HPBCD, 26 mM RAMEA, 85 mM HPACD; 40 min exposure; 1 mM 4-AP, 8 min
Protocol: After thawing and centrifugation, the cryopreserved synaptosomes were resuspended in isotonic HEPES-glucose buffer. Synaptosomal suspensions corresponding to 10 mg of synaptosomes were centrifuged to an 8-well strip plate (15 min, 2500× g, 4 °C) and the supernatant was discarded. Vehicle-treated (control) and CD-treated synaptosomes were incubated in 200 μL HEPES-glucose buffer with or without CDs, respectively, for 40 min at 37 °C. […] After incubation, the supernatant was replaced with fresh HEPES-glucose buffer containing 40 µM DL-TBOA (a competitive, non-transportable blocker of excitatory amino acid transporters that inhibits the reuptake of released glutamate) and equilibrated for 2 × 10 min at 37 °C with buffer replacement. After equilibration, the buffer was replaced by fresh HEPES-glucose buffer in the case of unstimulated groups. […] Following stimulation, aliquots were taken from the buffer at 8 min and stored at −20 °C until CE analysis. The glutamate content of the aliquots was analyzed by a capillary electrophoresis-laser induced fluorescence method developed in our laboratory. Briefly, samples were subjected to derivatization with NBD-F (1 mg/mL final concentration) in 20 mM borate buffer, pH 8.5 for 20 min at 65 °C. […] Glutamate release was normalized to the baseline release from the vehicle-treated, unstimulated synaptosomes. Data were analyzed by GraphPad Prism 8 (GraphPad Software, La Jolla, CA, USA). Concentration–response curves were constructed by the nonlinear regression method. One-way ANOVA followed by Bonferroni’s post hoc test was used for the data analysis in the case of the glutamate release experiments. All data are presented as means ± SEM of at least three parallel measurements. Differences were considered significant if p < 0.05.

[3] = tested on: rat cerebral synaptosomes; test: Resazurin reduction viability assay; details: for IC50 / Concentration with significant decrease in viability / metabolic activity: 40 min exposure; for IC50: percentage of vehicle-treated synaptosomes; for Concentration with significant decrease in viability / metabolic activity: resazurin reduction
Protocol: Adult male Wistar rats purchased from Toxi-Coop Ltd. (Budapest, Hungary) were used in the experiments. Cerebral synaptosomes were prepared according to Modi and co-workers with the following modifications. Animals were decapitated and the brain was removed rapidly. Isotonic sucrose buffer (0.32 M sucrose, 4 mM HEPES-NaOH, pH 7.4) was used to homogenize the cerebrum with a Potter S Homogenizer (B. Braun, Melsungen, Germany) with 15 strokes at 1000 rpm. The homogenate was centrifuged (1500× g, 10 min, 4 °C) and the pellet was resuspended in sucrose buffer and centrifuged with the same parameters again. The two supernatants were combined and centrifuged (20,000× g, 10 min, 4 °C) to pellet the crude synaptosomes. […] Synaptosomes were stored frozen using cryopreservation buffer and the slow freezing method to preserve their physiological state and integrity. Briefly, synaptosome pellets were resuspended in isotonic sucrose buffer containing 10% DMSO (v/v) and 10% FBS (v/v). To slow down the freezing process at −80 °C, synaptosomes were placed in a 3 cm thick-walled polystyrene box with a lid. Synaptosomes were stored at −80 °C until use. Immediately prior to the experiments, synaptosomes were rapidly thawed in a 37 °C water bath and pelleted by centrifugation (20,000× g, 10 min, 4 °C) to remove the cryopreservation buffer. […] For all types of experiments, except for the glutamate release measurements, vehicle-treated (control) and CD-treated synaptosomes were incubated in 500 μL HEPES-glucose buffer with or without CDs, respectively, for 40 min at 37 °C. […] After incubation, the synaptosomes were centrifuged (20,000× g, 5 min, 4 °C) and used immediately for further analysis. A slightly different incubation method used in the glutamate release measurements is described in the corresponding section. Across all types of experiments, osmolarities of the CD solutions were adjusted and they were between 290 and 310 mOsm. At least three parallel measurements were carried out. Viability of the rat cerebral synaptosomes was measured by the Resazurin Cell Viability Kit (Cell Signaling Technology Inc., Danvers, MA, USA) with minor modifications. The assay was based on the reduction in the nonfluorescent resazurin to highly fluorescent resorufin by intracellular dehydrogenase enzymes. Briefly, after CD treatments, 2 mg of the synaptosomes were centrifuged (20,000× g, 5 min, 4 °C) and the supernatant was discarded. […] After 25 min of incubation, synaptosomes were centrifuged (20,000× g, 5 min, 4 °C). Fluorescence of the supernatant was measured with a Varioskan LUX multimode microplate reader (Thermo Fisher Scientific) at 530/590 nm. Viability of the CD-treated synaptosomes was calculated as the percentage of vehicle-treated control synaptosomes.

| Compound | IC50 [1] [mM] | 4-AP-evoked (stimulated) glutamate release [2] | IC50 ([1]; Rattus norvegicus, 40 min) [mM] | Maximal effect (plateau) of LDH release [1] | IC50 ([3]; Rattus norvegicus, 40 min) [mM] | Concentration with significant decrease in viability / metabolic activity [3] | Concentration with influence on membrane integrity ([1]; LDH release, highest tested concentration) [µM] | IC50 [3] [mM] | Viability at 60 mM ([3]; 60 mM) |
| --- | --- | --- | --- | --- | --- | --- | --- | --- | --- |
| (2-hydroxypropyl)-alpha-cyclodextrin [HPACD] | > 100 | not detected | – | – | – | – | – | – | – |
| CC(O)COC[C@H]1O[C@@H]2O[C@H]3[C@H](O)[C@@H](O)[C@@H](O[C@H]4[C@H](O)[C@@H](O)[C@@H](O[C@H]5[C@H](O)[C@@H](O)[C@@H](O[C@H]6[C@H](O)[C@@H](O)[C@@H](O[C@H]7[C@H](O)[C@@H](O)[C@@H](O[C@H]8[C@H](O)[C@@H](O)[C@@H](O[C@H]1[C@H](O)[C@H]2O)O[C@@H]8COCC(C)O)O[C@@H]7COCC(C)O)O[C@@H]6COCC(C)O)O[C@@H]5COCC(C)O)O[C@@H]4COCC(C)O)O[C@@H]3COCC(C)O (stereo partly drawn) [HPBCD, (2-hydroxypropyl)-beta-cyclodextrin] | – | still evoked glutamate release | 31 | 43% | > 100 | 100000 µM | – | – | – |
| randomly methylated alpha-cyclodextrin [RAMEA] | > 60 | not detected | – | – | – | 100000 µM | 100000 | ~90 | – |
| COC[C@H]1O[C@@H]2O[C@H]3[C@H](O)[C@@H](OC)[C@@H](O[C@H]4[C@H](O)[C@@H](OC)[C@@H](O[C@H]5[C@H](O)[C@@H](OC)[C@@H](O[C@H]6[C@H](O)[C@@H](OC)[C@@H](O[C@H]7[C@H](O)[C@@H](OC)[C@@H](O[C@H]8[C@H](O)[C@@H](OC)[C@@H](O[C@H]1[C@H](O)[C@H]2OC)O[C@@H]8COC)O[C@@H]7COC)O[C@@H]6COC)O[C@@H]5COC)O[C@@H]4COC)O[C@@H]3COC [DIMEB, heptakis(2,6-di-O-methyl)-beta-cyclodextrin] | 18.3 | not detected | – | about 60% | – | higher than 10 mM | – | 26.5 | total loss of viability |
